Source: publication PMC6556873, “Rapid Covalent-Probe Discovery by Electrophile-Fragment Screening” (Journal of the American Chemical Society, 2019)
Read-outs that look alike come from different tables or passages of the source.

Tests used:
NNMT (hNNMT) = target: T1, NNMT (hNNMT) (Homo sapiens, UniProt P40261); design: Intact protein LC/MS covalent labelling, fragments in pools of five, 200 uM each, 4 °C; conditions: 24 h, 4 °C, pool of five; 200 µM; covalent
T1 construct: wild type, N-terminal His6 tag kept (no cleavage described), E. coli, construct 31248 Da
T1 sequence (P40261 1-264): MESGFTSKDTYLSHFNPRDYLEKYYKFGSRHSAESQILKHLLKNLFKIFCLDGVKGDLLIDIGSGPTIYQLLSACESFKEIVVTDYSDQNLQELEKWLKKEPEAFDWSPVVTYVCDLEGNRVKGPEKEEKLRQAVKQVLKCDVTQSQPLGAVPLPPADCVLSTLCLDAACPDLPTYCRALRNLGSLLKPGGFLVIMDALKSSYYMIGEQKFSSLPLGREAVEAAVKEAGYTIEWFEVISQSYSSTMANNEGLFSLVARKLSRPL

PCAF = target: T2, PCAF (Homo sapiens, UniProt Q92831); design: Intact protein LC/MS covalent labelling, fragments in pools of five, 200 uM each, 4 °C; conditions: 24 h, 4 °C, pool of five; 200 µM; covalent
T2 construct: gene KAT2B
T2 sequence (Q92831 whole entry, the tested form may be a part): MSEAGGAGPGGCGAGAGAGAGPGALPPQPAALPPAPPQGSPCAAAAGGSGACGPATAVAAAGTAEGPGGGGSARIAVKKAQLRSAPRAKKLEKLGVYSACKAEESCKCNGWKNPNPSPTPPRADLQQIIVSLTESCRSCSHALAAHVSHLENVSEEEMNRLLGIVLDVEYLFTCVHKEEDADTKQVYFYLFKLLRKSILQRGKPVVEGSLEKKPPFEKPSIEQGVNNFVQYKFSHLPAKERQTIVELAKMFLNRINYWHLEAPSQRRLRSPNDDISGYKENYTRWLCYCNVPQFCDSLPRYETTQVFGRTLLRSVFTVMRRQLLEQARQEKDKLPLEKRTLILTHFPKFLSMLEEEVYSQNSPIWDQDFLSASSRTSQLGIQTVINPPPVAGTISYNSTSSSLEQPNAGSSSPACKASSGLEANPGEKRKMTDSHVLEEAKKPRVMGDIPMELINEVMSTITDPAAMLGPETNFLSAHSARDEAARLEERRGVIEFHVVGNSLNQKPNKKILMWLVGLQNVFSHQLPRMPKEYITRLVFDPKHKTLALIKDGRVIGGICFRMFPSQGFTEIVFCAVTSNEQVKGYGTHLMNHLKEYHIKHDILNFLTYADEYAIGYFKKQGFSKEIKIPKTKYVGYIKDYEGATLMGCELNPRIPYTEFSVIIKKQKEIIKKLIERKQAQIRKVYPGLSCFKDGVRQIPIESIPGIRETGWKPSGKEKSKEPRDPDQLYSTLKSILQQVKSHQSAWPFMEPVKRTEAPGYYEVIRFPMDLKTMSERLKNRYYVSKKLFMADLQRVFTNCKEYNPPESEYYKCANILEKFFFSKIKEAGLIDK

OTUB2 (OTUB2A) = target: T3, OTUB2 (OTUB2A) (Homo sapiens, UniProt Q96DC9); design: Intact protein LC/MS covalent labelling, fragments in pools of five, 200 uM each, 4 °C; conditions: 24 h, 4 °C, pool of five; 200 µM; covalent
T3 construct: full length residues 1-234, E. coli BL21(DE3)-R3, His tag removed by TEV, construct 27312 Da
T3 sequence (Q96DC9 1-234): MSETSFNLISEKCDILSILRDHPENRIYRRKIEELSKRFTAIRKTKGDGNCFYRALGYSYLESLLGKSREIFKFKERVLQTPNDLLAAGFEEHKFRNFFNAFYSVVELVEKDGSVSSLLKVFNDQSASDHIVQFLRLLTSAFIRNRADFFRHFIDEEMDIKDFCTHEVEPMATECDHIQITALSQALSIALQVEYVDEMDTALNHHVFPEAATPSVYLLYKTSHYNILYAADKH

NUDT7 = target: T4, NUDT7 (Homo sapiens, UniProt P0C024); design: Intact protein LC/MS covalent labelling, fragments in pools of five, 200 uM each, 4 °C; conditions: 24 h, 4 °C, pool of five; 200 µM; covalent
T4 construct: residues 14-235, E. coli, pNIC28-Bsa4, N-terminal His6 tag removed by TEV, construct 26672 Da
T4 sequence (P0C024 14-235): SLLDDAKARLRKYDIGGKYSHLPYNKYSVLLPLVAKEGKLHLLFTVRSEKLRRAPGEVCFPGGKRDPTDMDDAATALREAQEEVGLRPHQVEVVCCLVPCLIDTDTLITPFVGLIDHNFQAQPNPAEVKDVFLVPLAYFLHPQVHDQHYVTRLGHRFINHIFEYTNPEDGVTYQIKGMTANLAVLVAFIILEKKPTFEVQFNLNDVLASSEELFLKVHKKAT

BSA = target: T5, BSA (Bos taurus, UniProt P02769); design: Intact protein LC/MS covalent labelling, fragments in pools of five, 200 uM each, 4 °C; conditions: 24 h, 4 °C, pool of five; 200 µM; covalent
T5 construct: gene ALB
T5 sequence (P02769 whole entry, the tested form may be a part): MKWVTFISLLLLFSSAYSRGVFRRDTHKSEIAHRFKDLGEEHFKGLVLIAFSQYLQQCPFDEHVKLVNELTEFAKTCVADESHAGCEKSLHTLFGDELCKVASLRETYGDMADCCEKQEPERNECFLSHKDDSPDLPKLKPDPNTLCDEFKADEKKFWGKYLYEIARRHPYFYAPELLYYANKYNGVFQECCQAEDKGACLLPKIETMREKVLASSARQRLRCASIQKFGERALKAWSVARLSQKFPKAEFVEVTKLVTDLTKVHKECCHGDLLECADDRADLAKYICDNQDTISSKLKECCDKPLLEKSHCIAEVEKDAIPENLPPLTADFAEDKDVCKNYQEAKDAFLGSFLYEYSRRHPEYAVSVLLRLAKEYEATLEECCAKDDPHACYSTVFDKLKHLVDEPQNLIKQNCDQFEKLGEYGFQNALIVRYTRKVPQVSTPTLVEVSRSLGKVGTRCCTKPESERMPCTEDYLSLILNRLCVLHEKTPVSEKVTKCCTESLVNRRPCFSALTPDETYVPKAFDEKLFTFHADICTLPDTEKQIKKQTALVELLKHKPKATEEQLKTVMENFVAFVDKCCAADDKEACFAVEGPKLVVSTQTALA

in vitro [1] = experiment: in vitro; design: species or system CCD841, HEK293; conditions: human, hb2 cells, read-out: HB-2 Cells Viability (%)
in vitro [2] = experiment: in vitro; design: species or system HB2, HEK293; conditions: human, ccd841 cells
in vitro [3] = experiment: in vitro; design: species or system HB2, CCD841; conditions: human, hek293 cells

Row | NNMT (NNMT (hNNMT)) | PCAF (PCAF) | OTUB2 (OTUB2 (OTUB2A)) | NUDT7 (NUDT7) | BSA (BSA) | Compound | viability at 48 h, 10 µM (in vitro [1]) | viability at 48 h, 10 µM (in vitro [2]) | viability at 48 h, 10 µM (in vitro [3])
1 | 0 | 0 | 0 | 0 | 0 | O=C(CCl)N1CCC(C(=O)N2CCCCCC2)CC1 [PCM-0102781] | 90.6% | 92.5% | 63.8%
2 | 0.23 | 0 | 0 | 0 | 0 | Cl.O=C(CCl)NC1CCN(C2CC2)CC1 [PCM-0103055] | 98.2% | 83% | 92.7%
3 | 0 | 0 | 0 | 0 | 0 | O=C(CCl)N(C1CCCC1)C1CC1 [PCM-0103064] | 102% | 87.8% | 74%
4 | 0.2 | 0 | 0.87 | 0 | 0 | COC(=O)c1cccc(NC(=O)CCl)c1 [PCM-0103048] | 17.7% | 34.7% | 5.1%
5 | 0 | 0 | 0 | 0 | 0 | C=CC(=O)N1CCC(Oc2cnc3ccccc3n2)CC1 [PCM-0102925] | 107% | 102% | 86.8%
6 | 0.12 | 0 | 0 | 0.15 | 0 | C=CC(=O)Nc1cc(CC(C)(C)C)nn1C [PCM-0102686] | 102% | 144% | 75.3%
7 | 0 | 0 | 0.23 | 0 | 0 | O=C(CCl)NNC(=O)C1CC1 [PCM-0102776] | 93.1% | 88.4% | 90.2%
8 | 0 | 0 | 0 | 0.1 | 0 | C=CC(=O)N1CCCCC1c1cnn(C)c1 (centres unmarked) [PCM-0102675] | 95.7% | 103% | 88.5%

The next lines start with the molecule.

Row | Compound | NNMT (NNMT (hNNMT)) | PCAF (PCAF) | OTUB2 (OTUB2 (OTUB2A)) | NUDT7 (NUDT7) | BSA (BSA) | viability at 48 h, 10 µM (in vitro [1]) | viability at 48 h, 10 µM (in vitro [2]) | viability at 48 h, 10 µM (in vitro [3])
9 | Cc1ccc(NC(=O)CCl)cc1C [PCM-0102339] | 0.7 | 0 | 0.82 | 0.18 | 0 | 5.2% | 34.9% | 1.5%
10 | Cc1ccc(NC(=O)NC(=O)CCl)cc1 [PCM-0102623] | 0.71 | 0 | 0 | 0.11 | 0 | 69.1% | 82.5% | 80.6%
11 | C=CC(=O)N1CCCCC1c1ccc(C(=O)NC)n1C (centres unmarked) [PCM-0102610] | 0.14 | 0 | 0 | 0 | 0 | 106% | 112% | 99.3%
12 | O=C(CCl)Nc1nnc(-c2ccccc2)o1 [PCM-0102458] | 0.14 | 0 | 0.08 | 0 | 0 | 97.2% | 98% | 104%
13 | C=CC(=O)N1CCn2nc(C)nc2C1 [PCM-0102605] | 0 | 0 | 0 | 0 | 0 | 102% | 104% | 88.4%
14 | O=C(CCl)N(c1ccccc1)C1C=CS(=O)(=O)C1 (centres unmarked) [PCM-0102372] | 0.28 | 0 | 0 | 0.28 | 0 | 24.1% | 31% | 11.2%
15 | O=C(CCl)Nc1cccc(C(F)(F)F)c1 [PCM-0102290] | 0.77 | 0 | 0.26 | 0.12 | 0 | 9.5% | 40% | 2.3%
16 | C=CC(=O)N1CCC(C(=O)[O-])CC1.[Na+] [PCM-0102613] | 0 | 0 | 0 | 0 | 0 | 98.2% | 125% | 114%
17 | Cc1ccccc1C(C)NC(=O)CCl (centres unmarked) [PCM-0102390] | 0.26 | 0 | 0.26 | 0.1 | 0 | 92.8% | 71.4% | 75.8%
18 | C=CC(=O)N(C)C1CCCCNC1=O (centres unmarked) [PCM-0102484] | 0 | 0 | 0.11 | 0 | 0 | 95.7% | 101% | 122%
19 | C=CC(=O)Nc1ccc(N2CCCC2=O)cc1 [PCM-0102145] | 0.14 | 0 | 0 | 0 | 0 | 101% | 125% | 91.4%
20 | CC(=O)c1ccccc1NC(=O)CCl [PCM-0102282] | 0.19 | 0 | 0 | 0 | 0 | 102% | 90.3% | 87.2%
21 | C=CC(=O)N1CCCC(c2nncn2C2CC2)C1 (centres unmarked) [PCM-0102567] | 0 | 0 | 0 | 0 | 0 | 102% | 112% | 113%
22 | C=CC(=O)N1CCC2(CC1)CCS(=O)(=O)CC2 [PCM-0102559] | 0 | 0 | 0 | 0 | 0.12 | 105% | 113% | 113%
23 | O=C(CCl)Nc1ccccc1 [PCM-0102658] | 0 | 0 | 0 | 0 | 0 | 72% | 67% | 56.1%
24 | CCc1nnc(NC(=O)CCl)s1 [PCM-0102166] | 0.42 | 0 | 0 | 0.21 | 0 | 94.5% | 92.5% | 95.8%
25 | C=CC(=O)NC1(c2nnc3n2CCCC3)CCC1 [PCM-0102639] | 0 | 0 | 0 | 0 | 0 | 101% | 131% | 123%
